In patent publication EP2226070B1, “Process for determining the optimal dosage of antivitamins K in anticoagulant therapy” (Puech, Roger, priority 2009, dated 2010):

System: INR
Assay: Correlation of optimal dosages between different vitamin K antagonists, established with the dosage determination process
Type: in vivo, patient
Details: for dose correspondant à 1/4 de comprimé de "Préviscan" (corrélation proportionnelle entre différents antivitamines K): dose equivalent to 1/4 tablet of Préviscan for the optimal anticoagulant dosage
Source text: Ce procédé de détermination est original en ce qu'il comprend les étapes suivantes consistant : • (a) à enregistrer la valeur IO de l'INR optimal cible, • (b) à enregistrer les valeurs d'INR mesurées dans une période donnée T1 à partir d'un surdosage Dmaxi dudit antivitamine K fixé préalablement par le prescripteur au-dessus du dosage préconisé, afin de déterminer une première pente P1 des valeurs d'INR en fonction du temps T1, • (c) à partir de la pente P1, à extrapoler et à enregistrer une valeur Imaxi d'INR théoriquement atteinte à partir du jour où la valeur IO de l'INR cible est atteinte et au bout d'une période déterminée T0, • (d) à enregistrer les valeurs d'INR mesurées dans une période donnée T2 à partir d'un sous-dosage Dmini dudit antivitamine K fixé par le prescripteur au-dessous du dosage préconisé, afin de déterminer une deuxième pente P2 des valeurs d'INR en fonction du temps T2, • (e) à partir de la pente P2, à extrapoler et à enregistrer une valeur Imini d'INR théoriquement atteinte à partir du jour où la valeur IO de l'INR cible est atteinte et au bout de la même période déterminée T0, • (f) à calculer à partir de la différence entre les valeurs Imaxi et Imini d'INR théoriquement calculées, un facteur de correction de posologie dudit antivitamine K exprimé selon la formule suivante : F = (Imaxi -Imini)/(Dmaxi -Dmini) [formula] • (g) afin de déterminer à partir de la différence entre les valeurs I0 de l'INR cible optimal et de l'Imini de l'INR minimum calculé, et dudit facteur F de correction de posologie dudit antivitamine K, la posologie adéquate D0 permettant d'atteindre et de maintenir constante la valeur Io de l'INR cible fixée préalablement selon la relation suivante : D0 = Dmini + (I0 -Imini)/(F). [formula]
C'est aussi à partir de son procédé de détermination de dosage optimal d'un antivitamine K, que le demandeur a pu établir également une corrélation proportionnelle entre différents antivitamines K (1/4 de comprimé de "Préviscan" correspond à 0,82 mg de "Sintrom", à 2 mg de "Coumadine" ou à 0,82 mg de "Apegmone") de sorte qu'à partir d'un dosage optimal d'un antivitamine K prescrit, il peut calculer le dosage optimal d'un autre antivitamine K en remplacement du premier.

Compound	dose correspondant à 1/4 de comprimé de "Préviscan" (corrélation proportionnelle entre différents antivitamines K)	dose de référence de la corrélation proportionnelle entre différents antivitamines K (reference dose of the proportional correlation)
O=c1oc2ccccc2c(O)c1C(CC(O)c1ccc(Cl)cc1)c1ccc(Cl)s1 (stereo not shown) [Apegmone]	0,82 mg	
CC(=O)CC(c1ccccc1)c1c(O)c2ccccc2oc1=O (stereo not shown) [Coumadine]	2 mg	
CC(=O)CC(c1ccc([N+](=O)[O-])cc1)c1c(O)c2ccccc2oc1=O (stereo not shown) [Sintrom]	0,82 mg	
O=C1c2ccccc2C(=O)C1c1ccc(F)cc1 [Préviscan]		1/4
